According to patent US11123398B2, “Chemotherapeutic combinations of cationic antimicrobial peptides and chemotherapeutics” (LYTIX BIOPHARMA AS, priority 2014, dated 2021):
Non-standard residues stand in square brackets, D forms with d. Residues, ends and D or L forms follow the SMILES beside them. Bip = N[C@@H](Cc1ccc(-c2ccccc2)cc1)C(=O)O; Dip = N[C@H](C(=O)O)C(c1ccccc1)c1ccccc1

Columns and labels:
[1] = test system: A20 lymphoma; experiment: LTX-315 with metronomic CY in A20 lymphoma model; type: in vivo, Balb/c mice; settings: metronomic CY, single i.p. 2 mg on day 4
Protocol: Tumor cells were harvested, washed in RPMI-1640 and injected intradermally (i.d.) into the right side of the abdomen in Balb/c mice (5×10^6 A20 cells per mouse/50 μl RPMI-1640). When animals obtained palpable tumors (20-30 mm^2) animals were injected i.p. with a single dose of CY (day 4) dissolved in saline (2.0 mg CY/500 μl saline). […] Tumor size was measured using an electronic caliper and expressed as the area of an ellipse [(maximum dimension/2)×(minimum dimension/2)×π]. Animals were then euthanized when the product of the perpendicular tumor dimensions reached 130 mm^2 or when tumor ulceration developed.

[2] = test system: spleen cells; settings: cited from earlier work
[3] = test system: IGROV-1/CDDP; experiment: MTS cytotoxicity assay, IGROV-1/CDDP; type: cell-based, human; settings: IC50 resistant / IC50 sensitive line; cisplatin resistance
Protocol: (§1) Tumor cells were plated in 96-well flat-bottom microtitration plates (Nunc, Dutscher, Brumath, France) and incubated at 37° C. for 24 hours before treatment in 190 μl of drug-free culture medium supplemented or not with 10% FBS for adherent or suspension growing cell lines, respectively.
(§2) The adherent cell lines were washed once with 200 μl FBS-free culture medium before treatment. Tumor cells were incubated for 4 hours with 10 concentrations of compounds in ¼ dilution step with a top dose of 400 μM (range 4×10^−4 to 4×10^−10 M), with 1% (final concentration) Triton X-100 as positive control and FBS-free culture medium as negative control. The cells (190 μl) were incubated in a 200 μl final volume of FBS-free culture medium containing test substances at 37° C. under 5% CO2.
(§3) Three independent experiments were performed, each concentration being tested in quadruplicate. Control cells were treated with vehicle alone. At the end of treatments, the cytotoxic activity was evaluated by a MTS assay (see § 3.3.).
(§4) Like MTT, MTS is bioreduced by cells into a formazan product that is directly soluble in culture medium without processing, unlike MTT.
(§5) At the end of the cells treatment, 40 μl of a 0.22 μm filtered freshly combined solution of MTS (20 ml at 2 mg/ml, Ref G1111, Batch 235897, Exp March 2009, Promega, Charbonnières, France) and PMS (1 ml at 0.92 mg/ml, Ref P9625, Batch 065K0961, Sigma) in Dulbecco's Phosphate Buffered Saline (DPBS, Ref 17-513Q, Batch 6MB0152, Cambrex), were added in each well. Culture plates were incubated for 2 h at 37° C. Absorbency (OD) were measured at 490 nm in each well using VICTOR^3™ 1420 multilabeled counter (Wallac, PerkinElmer, Courtaboeuf, France).
(§6) IC50: drug concentration to obtain a 50% inhibition of cell proliferation.
(§7) The dose-response curves were plotted using XLFit 3 (IDBS, United Kingdom). The IC50 determination values were calculated using the XLFit 3 software from semi-log curves. Individual IC50 determination values as well as mean and SD values were generated.
(§8) Resistance index was calculated using the following formula: […]
(§9) Resistance index was calculated for each compound for each couple of sensitive and resistant cell lines. Individual resistance index was calculated when IC50 values of both sensitive and corresponding resistant cell lines were determined within same experiment. In addition, resistance index was also calculated ratio of mean IC50 values obtained during three independent experiments.

[4] = test system: panel of 10 lymphoma cell lines; type: cell-based, human; settings: conclusion
Protocol: (§10) Tumor cells were plated in 96-well flat-bottom microtitration plates (Nunc, Dutscher, Brumath, France) and incubated at 37° C. for 24 hours before treatment in 190 μl of drug-free and FBS-free culture medium.
[…] compounds in ¼ dilution step with a top dose of 400 μM (range 4×10^−4 to […]), with 1% (final concentration) Triton X-100 as positive control and FBS-free culture medium as negative control. The cells (190 μl) were incubated in a 200 μl final volume of FBS-free culture medium containing test substances at 37° C. under 5% CO2.
(§11) Three independent experiments were performed, each concentration being issued from quadruplicate. Control cells were treated with vehicle alone. At the end of treatments, the cytotoxic activity was evaluated by a MTS assay (see § 3.3 below).
as §4, §5
(§12) 4.1. IC50 Data was Determined as in Example 1

[5] = test system: Hep G2 cell line; type: cell-based, human; settings: 4 h
Protocol: as §1, §2, §3, §4, §5, §6, §7

[6] = test system: T-47D cell line; type: cell-based, human; settings: 4 h
Protocol: as §1, §2, §3, §4, §5, §6, §7

[7] = test system: MCF-7/mdr; experiment: MTS cytotoxicity assay, MCF-7/mdr; type: cell-based, human; settings: IC50 resistant / IC50 sensitive line; doxorubicin resistance
Protocol: as §1, §2, §3, §4, §5, §6, §7, §8, §9

[8] = test system: panel of 37 human cancer cell lines; type: cell-based; settings: for IC50: 4 h; for IC50 range against 37 human cancer cell lines: conclusion
Protocol: as §2, with “Tumor cells were incubated for 4 hours with 10 concentrations of” left out
as §3, §4, §5, §6, §7

[9] = test system: U-937 cell line; type: cell-based, human; settings: 4 h
Protocol: as §10
(§13) Tumor cells were incubated for 4 hours with 10 concentrations of compounds in ¼ dilution step with a top dose of 400 μM (range 4×10^−4 to […]), with 1% (final concentration) Triton X-100 as positive control and FBS-free culture medium as negative control. The cells (190 μl) were incubated in a 200 μl final volume of FBS-free culture medium containing test substances at 37° C. under 5% CO2.
as §11, §4, §5, §12

[10] = test system: Raji cell line; type: cell-based, human; settings: 4 h
Protocol: as §10, §13, §11, §4, §5, §12

[11] = test system: HL-60/ADR; experiment: MTS cytotoxicity assay, HL-60/ADR; type: cell-based, human; settings: IC50 resistant / IC50 sensitive line; doxorubicin resistance
Protocol: as §1, §2, §3, §4, §5, §6, §7, §8, §9

[12] = test system: CCRF-CEM/VLB; experiment: MTS cytotoxicity assay, CCRF-CEM/VLB; type: cell-based, human; settings: IC50 resistant / IC50 sensitive line
Protocol: as §1
as §2, with “The cells (190 μl) were incubated in a 200 μl final volume of FBS-free culture medium containing test substances at 37° C. under 5% CO2.” left out
Three independent experiments were performed, each concentration being tested in quadruplicate. […] At the end of treatments, the cytotoxic activity was evaluated by a MTS assay (see § 3.3.). […]
as §5, with “Culture plates were incubated for 2 h at 37° C.” left out, “France). […]” for “France).”
as §8

[13] = test system: RPMI 8226 cell line; type: cell-based, human; settings: 4 h
Protocol: as §1, §2, §3, §4, §5, §6, §7

[14] = test system: U-87 MG cell line; type: cell-based, human; settings: 4 h
Protocol: as §1, §2, §3, §4, §5, §6, §7

[15] = test system: Ramos cell line; type: cell-based, human; settings: 4 h
Protocol: as §10, §13, §11, §4, §5, §12

IC50 range against 10 human lymphoma cell lines [4] | IC50 [5] | IC50 [6] | IC50 [8] | IC50 range against 37 human cancer cell lines [8] | IC50 [9] | IC50 [10] | IC50 [13] | IC50 [14] | IC50 [15] | SMILES | Duration of tumor growth inhibition [1] | Relative number of CD19+ and Tregs ([2]; after CY administration) | Relative numbers of CD4+ and CD8+ T cells in spleens and LNs ([2]; after CY administration) | Drop in spleen cells at low-point ([2]; single i.p. injection of 2 mg CY, fourth day after administration) | Resistance index (RI), IGROV-1/CDDP [3] | Resistance index (RI), MCF-7/mdr [7] | Resistance index (RI), HL-60/ADR [11] | Resistance index (RI), CCRF-CEM/VLB [12]
– | – | – | – | – | – | – | – | – | – | O=P1(N(CCCl)CCCl)NCCCO1 (stereo not shown) [CY, cyclophosphamide] | 7 to 10 days | decreased sharply | increased | 50% | – | – | – | –
micromolar range | 20.1 ± 4.07 µM | 4.83 ± 0.96 µM | 12.1 ± 4.27 µM | micromolar to ten micromolar range | 5.3 ± 2.02 µM | 12.5 ± 3.52 µM | – | – | – | NCCCC[C@H](NC(=O)[C@H](Cc1c[nH]c2ccccc12)NC(=O)[C@H](CCCCN)NC(=O)[C@H](CCCCN)NC(=O)[C@@H](NC(=O)[C@H](Cc1c[nH]c2ccccc12)NC(=O)[C@H](CCCCN)NC(=O)[C@H](CCCCN)NC(=O)[C@@H](N)Cc1c[nH]c2ccccc12)C(c1ccccc1)c1ccccc1)C(N)=O [LTX-302, W-K-K-W-Dip-K-K-W-K-NH2] (H-WKKW[Dip]KKWK-NH2; N-terminus assumed) | – | – | – | – | 0.33 | 1.23 | 1.31 | –
micromolar range | – | – | 9.6 ± 3.73 µM | micromolar to ten micromolar range | – | 16.1 ± 4.86 µM | 4.01 ± 0.39 µM | 18.5 ± 4.86 µM | 3.21 ± 2.81 µM | NCCCC[C@H](NC(=O)[C@H](Cc1c[nH]c2ccccc12)NC(=O)[C@H](Cc1c[nH]c2ccccc12)NC(=O)[C@H](CCCCN)NC(=O)[C@H](CCCCN)NC(=O)[C@H](Cc1c[nH]c2ccccc12)NC(=O)[C@H](Cc1ccc(-c2ccccc2)cc1)NC(=O)[C@H](CCCCN)NC(=O)[C@@H](N)CCCCN)C(N)=O [LTX-313, K-K-Bip-W-K-K-W-W-K-NH2] (H-KK[Bip]WKKWWK-NH2; N-terminus assumed) | – | – | – | – | 0.49 | 1.24 | 1.16 | 0.76
